Source: patent US8017611B2, “Pyridine and pyrazine derivatives -083” (AstraZeneca AB, priority 2007, dated 2011)
Read-outs that look alike come from different tables or passages of the source.

How the values were obtained:
[1] = molecular target: T1, recombinant Axl tyrosine kinase (Homo sapiens, UniProt P30530); assay: In vitro Axl kinase assay (AlphaScreen), Test (a); assay type: biochemical; details: for % Axl tyrosine kinase inhibition at 1 μM concentration / inhibition at 1 µM: test compound at 1 μM, first value quoted; for IC50: Test (a), read-out: IC50 versus Axl tyrosine kinase; for inhibition at 1 µM: read-out: % Axl tyrosine kinase inhibition at 1 μM concentration
T1 construct: encompassing amino acids 473 to 894 of Axl; GST (N); made in house; host or cells: SF126 insect cells
T1 sequence (P30530 473-894): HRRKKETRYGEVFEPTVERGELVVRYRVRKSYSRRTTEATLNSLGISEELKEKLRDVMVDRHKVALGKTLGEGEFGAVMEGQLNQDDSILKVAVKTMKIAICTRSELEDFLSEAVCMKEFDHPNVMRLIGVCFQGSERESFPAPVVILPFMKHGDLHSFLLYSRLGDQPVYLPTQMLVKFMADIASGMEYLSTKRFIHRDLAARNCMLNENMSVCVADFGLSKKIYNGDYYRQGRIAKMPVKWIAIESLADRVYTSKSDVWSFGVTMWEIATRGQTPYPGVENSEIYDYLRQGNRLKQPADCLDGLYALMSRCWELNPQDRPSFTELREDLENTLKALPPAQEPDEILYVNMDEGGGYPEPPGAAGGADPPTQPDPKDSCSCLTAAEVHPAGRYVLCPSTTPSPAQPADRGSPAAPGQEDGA

[2] = molecular target: T2, Axl expressed on NCI H1299 lung large cell carcinoma cells (Homo sapiens, UniProt P30530); assay: Cellular phospho-Axl ELISA assay, Test (b)
T2 sequence (P30530 26-894): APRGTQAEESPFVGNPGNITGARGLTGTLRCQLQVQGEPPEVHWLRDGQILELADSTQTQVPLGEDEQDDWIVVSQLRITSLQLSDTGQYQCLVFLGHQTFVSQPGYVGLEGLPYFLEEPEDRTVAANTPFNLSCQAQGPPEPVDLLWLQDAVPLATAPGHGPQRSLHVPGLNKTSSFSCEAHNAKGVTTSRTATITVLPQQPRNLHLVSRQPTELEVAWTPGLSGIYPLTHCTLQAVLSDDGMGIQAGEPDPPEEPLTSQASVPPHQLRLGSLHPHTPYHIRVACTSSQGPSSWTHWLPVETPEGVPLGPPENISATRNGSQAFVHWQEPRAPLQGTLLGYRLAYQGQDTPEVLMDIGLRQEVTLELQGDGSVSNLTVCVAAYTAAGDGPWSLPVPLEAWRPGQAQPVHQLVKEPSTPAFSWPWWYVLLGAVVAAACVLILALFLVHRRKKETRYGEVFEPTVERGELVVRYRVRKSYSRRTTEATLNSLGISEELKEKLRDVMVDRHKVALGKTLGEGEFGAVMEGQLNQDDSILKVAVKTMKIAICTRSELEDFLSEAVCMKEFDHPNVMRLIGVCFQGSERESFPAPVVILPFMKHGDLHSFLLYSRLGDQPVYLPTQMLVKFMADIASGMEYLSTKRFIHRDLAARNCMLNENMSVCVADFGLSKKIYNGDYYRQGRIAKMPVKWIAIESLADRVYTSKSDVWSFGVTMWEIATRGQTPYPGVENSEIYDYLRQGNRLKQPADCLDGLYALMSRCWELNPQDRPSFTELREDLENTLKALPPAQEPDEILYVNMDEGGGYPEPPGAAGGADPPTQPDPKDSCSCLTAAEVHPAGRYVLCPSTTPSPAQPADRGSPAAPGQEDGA
Procedure: This assay uses a conventional ELISA method to determine the ability of test compounds to inhibit phosphorylation of tyrosine residues in Axl.
100 μl Aliquots were seeded into each of the wells of a clear 96 well tissue culture plate and the plates were incubated overnight at 37° C. with 5% CO2 to allow the cells to adhere to the wells.
Aliquots of each compound concentration were added to the cells in each well using the Echo 550 (Labcyte Inc., Sunnyvale, Calif., US). Control cells received DMSO only. The cells were incubated for 2 hours at 37° C. with 5% CO2.
The resultant tissue culture plates were incubated on ice for 30 minutes to ensure full lysis.
The wells were washed 3 times with 250 μl per well of PBS containing 0.05% v/v Tween (PBS/T). The wells were treated with 3% w/v BSA in PBS at ambient temperature for 2 hours and subsequently washed 3 times with 250 μl per well of PBS/T.
50 μl Aliquots of the NCI H1299 cell lysates were added to the ELISA plates.
100 μl Aliquots of substrate solution were added to each of the wells and fluorescence was read on a Tecan Ultra plate reader (Tecan UK Ltd., Reading, Berkshire, UK).

[3] = read-out: IC50 versus cellular phospho-Axl, Test (b), footnotes of Table A
[4] = read-out: IC50 versus cellular phospho-Axl, Test (b), NCI H1299 cells stimulated with GAS6

SMILES	% Axl tyrosine kinase inhibition at 1 μM concentration [1]	also measured
Nc1ncc(-c2ccc(C3CCNCC3)cc2)cc1-c1nc2ccccc2o1 [Example 2.18]	^#99.8%	IC50 [2, 3]: ~70 nM
Cc1nn(C2CCNCC2)cc1-c1cnc(N)c(-c2nc3ccccc3o2)c1 [Example 22, 3-(1,3-benzoxazol-2-yl)-5-[3-methyl-1-(4-piperidyl)pyrazol-4-yl]pyridin-2-amine]		IC50 [1]: ~0.4 nM; inhibition at 1 µM [1]: 100%; IC50 [2]: ~16 nM
CN1CCC(n2cc(-c3cnc(N)c(-c4nc5ccccc5o4)c3)c(CO)n2)CC1 [Example 41.19]	100.0%	IC50 [1]: ~0.8 nM; IC50 [2, 4]: ~7 nM
Nc1ncc(-c2cnn(C3CCNCC3)c2)cc1-c1nc2ccccc2s1 [Example 14, 3-(1,3-Benzothiazol-2-yl)-5-[1-(4-piperidyl)pyrazol-4-yl]pyridin-2-amine]		inhibition at 1 µM [1]: 99.9%; IC50 [2]: ~101 nM
COCc1nn(C2CCN(C)CC2)cc1-c1cnc(N)c(-c2nc3ccccc3o2)c1 [Example 41.26]	100.0%	IC50 [1]: ~0.3 nM; IC50 [2, 4]: ~3 nM
CN1CCC(n2cc(-c3cnc(N)c(-c4nc5ncc(F)cc5o4)c3)cn2)CC1 [Example 41.7]		IC50 [2, 3]: ~234 nM
Nc1ncc(-c2cccc(N3CCOCC3)c2)nc1-c1nc2ccccc2s1 [Example 49, 3-(1,3-Benzothiazol-2-yl)-5-(3-morpholinophenyl)pyrazin-2-amine]		inhibition at 1 µM [1]: 73.4%
NCCCOc1ccc(-c2cnc(N)c(-c3nc4ncccc4o3)c2)cc1 [Example 43B.31]	97.1%	
CC(=O)N1CCC(n2cc(-c3cnc(N)c(-c4nc5cccnc5o4)c3)cn2)CC1 [Example 57.4]	99.3%	
Nc1ncc(-c2ccc(OCCN3CCNCC3)cc2)cc1-c1nc2ncccc2o1 [Example 43B.29]	93.6%	
CN[C@H]1COCC[C@H]1Oc1ccc(-c2cnc(N)c(-c3nc4ncccc4o3)c2)cc1OC [Example 43C.37]	99.4%	
CNCCOc1ccc(-c2cnc(N)c(-c3nc4ncccc4o3)c2)cc1 [Example 43B.26]	97.7%	
COc1cc(-c2cnc(N)c(-c3nc4ncccc4o3)c2)ccc1OC[C@@H]1CCCN1C [Example 43C.6]	99.8%	
Nc1ncc(-c2cccc(C(=O)NCCN3CCOCC3)c2)cc1-c1nc2ncccc2o1 [Example 10A.2]	63.9%	
CCN1CCC(CNC(=O)c2ccc(-c3cnc(N)c(-c4nc5cccnc5o4)c3)cc2)CC1 [Example 45A.47]	96.1%	
CN(CCN1CCCC1)C(=O)c1ccc(-c2cnc(N)c(-c3nc4cccnc4o3)c2)cc1 [Example 45A.70]	98.8%	
Nc1ncc(-c2cnn(CCCN3CCC[C@@H]3CO)c2)cc1-c1nc2ccccc2o1 [Example 31.2]	99.9%	
NCc1ccc(-c2cnc(N)c(-c3nc4cnccc4o3)c2)cc1 [Example 8A.23]	99.1%	
Nc1ncc(-c2ccc(C(=O)NC[C@@H]3CCCN3)cc2)cc1-c1nc2cccnc2o1 [Example 45A.90]	98.9%	

SMILES	% Axl tyrosine kinase inhibition at 1 μM concentration [1]	also measured
CNS(=O)(=O)c1cccc(-c2cnc(N)c(-c3nc4cnccc4o3)c2)c1 [Example 8A.6]	97.7%	
Nc1ncc(-c2cccc(NC(=O)C3CCNCC3)c2)cc1-c1nc2cnccc2o1 [Example 8A.26]	97.9%	
CN1CCC(n2cc(-c3cnc(N)c(-c4nc5ccccc5o4)c3)c(C(=O)N(C)C)n2)CC1 [Example 41.30]	99.5%	
CN(C)C1(CNC(=O)c2ccc(-c3cnc(N)c(-c4nc5cccnc5o4)c3)cc2)CCCCC1 [Example 45A.41]	99.0%	
Nc1ncc(-c2cnc3ccccc3c2)cc1-c1nc2ccccc2o1 [Example 2.24]	88.9%	
Nc1ncc(-c2cnn(CCCN3CCC(O)C3)c2)cc1-c1nc2ccccc2o1 (stereo not shown) [Example 31.1]	100.0%	
COc1cccc2nc(-c3cc(-c4cnn(C5CCNCC5)c4)cnc3N)oc12 [Example 38.5]	100.0%	
Nc1ncc(-c2ccc(C(=O)N3CCC(N4CCCC4)CC3)cc2)cc1-c1nc2ncccc2o1 [Example 45B.5]	99.9%	
CN(C)CCCOc1ccc(-c2cnc(N)c(-c3nc4ccccc4o3)c2)cn1 [Example 2.26]	99.5%	
Nc1ncc(-c2cccc(C(=O)NC3CC3)c2)cc1-c1nc2ncccc2o1 [Example 10A.6]	37.8%	
CN1CCCC1CCOc1ccc(-c2cnc(N)c(-c3nc4ncccc4o3)c2)cc1 (stereo not shown) [Example 43B.17]	99.5%	
Cc1nn(C2CCN(C)CC2)c(C)c1-c1cnc(N)c(-c2nc3ccccc3o2)c1 [Example 41.17]	84.8%	
Nc1ncc(-c2ccc(C(=O)N3CCC(O)CC3)cc2)cc1-c1nc2ccccc2o1 [Example 2.11]	98.9%	
CN1CCC(n2cc(-c3cnc(N)c(-c4nc5ccccc5o4)c3)cn2)C1 (stereo not shown) [Example 41.9]	100.0%	
Nc1ncc(-c2ccc(C(=O)NCCCN3CC[C@H](F)C3)cc2)cc1-c1nc2cccnc2o1 [Example 45A.40]	98.3%	
Nc1ncc(-c2cccc(CC(=O)O)c2)nc1-c1nc2ccc(F)cc2o1 [Example 50, 2-[3-[5-amino-6-(6-fluoro-1,3-benzoxazol-2-yl)pyrazin-2-yl]phenyl]acetic acid]		inhibition at 1 µM [1]: 47.6%
COc1cc(-c2cnc(N)c(-c3nc4ncccc4o3)c2)ccc1OCCCCN [Example 43C.30]	99.0%	
CNCCN(C)C(=O)c1ccc(-c2cnc(N)c(-c3nc4cccnc4o3)c2)cc1 [Example 45A.85]	99.8%	
Nc1ncc(-c2cccc(C(=O)NCCN3CCCC3)c2)cc1-c1nc2ncccc2o1 [Example 10A.9]	82.5%	
